Measured values from patent publication US20170158702A1, “MULTIVALENT RAS BINDING COMPOUNDS” (KYRAS THERAPEUTICS, INC., priority 2015, published 2017).
Structures can show the parent of a compound that is named as a salt.

Experiments:
Type in all cases: cell-based
[1] = test system: MIA PaCa-2; test: Viability assay with MIA PaCa-2; details: MIA PaCa-2, viability assay per Example 57
Summary of the method: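 MIA PaCa-2 cells were seeded at 1200/well, allowed to adhere overnight, then treated in triplicate with 9-point 2-fold compound dilutions at 0.5% final DMSO. Viability was measured as cellular ATP by CellTiter-Glo luminescence 72 h after compound addition.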

[2] = test system: NCI-H460; test: Viability assay with NCI-H460 (CellTiter-Glo cytotoxicity assay, 72 h); details: NCI-H460 cell line, 72 h after compounds addition
Summary of the method: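 NCI-H460 cells, RPMI 1640 + 10% FBS, seeded 1200/well and adhered overnight, then exposed to compounds at 9 points, 2-fold dilution, in triplicate, 0.5% DMSO final. Cellular ATP measured by CellTiter-Glo luminescence 72 h after addition.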

[3] = test system: NCI-H2023; test: Viability assay with NCI-H2023; details: NCI-H2023, viability assay per Example 57
Protocol: NCI-H460 (Epithelial lung tissue; carcinoma; large cell lung cancer) were cultured in RPMI Medium 1640 (Invitrogen-22400105) supplemented with 10% fetal bovine serum (FBS; Invitrogen-10099141). All the cell lines were maintained in a humidified incubator at 37° C. with 5% CO2. Cell culture media and supplements were purchased from Invitrogen, and tissue culture flasks were purchased from Corning, 96-well plates were purchased from Greiner. CellTiter-Glo Luminescent Cell Viability Assay kits were purchased from Promega (Promega-G7573), cells counter Vi-Cell was purchased from Beckman, D300e digital dispenser was purchased from Tecan, detection instrument Envision was purchased from PerkinElmer.
Paclitaxel was purchased from SELLECK, test compounds, such as any one of the compounds disclosed herein, attained solubility in DMSO and when diluted into culture media. DMSO, solutions containing the test compounds, and culture media were warmed to 37° C. or room temperature for the solution preparation and dilutions.
NCI-H460 Cell line were seeded in 96-well plates (1200/well) and allowed to adhere to overnight (100 uL/well), for drug treatments with 2 fold dilution, 9 dose points, triplicates or vehicle control, compound stock solutions were prepared in DMSO and use D300e digital dispenser to add compounds to the wells to give the indicated final drug concentrations. Final DMSO concentration was 0.5%. Cellular ATP concentrations were assessed by using the CellTiter-Glo Cell Viability Assay as per the manufacturer's instructions 72 h after compounds addition. Additional cells lines were assayed with any one of the compounds disclosed herein according to the procedures described for the viability assay with NCI-H460.
A viability assay with NCI-H2023 (stage 3A, adenocarcinoma; non-small cell lung cancer) was performed with compounds listed in Table 16 according to the procedures described in Example 57.

[4] = test system: HT-29; test: Viability assay with HT-29; details: HT-29, viability assay per Example 57
Summary of the method: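 Cells seeded 1200/well, adhered overnight, then treated with 9-point 2-fold compound dilutions in triplicate (0.5% final DMSO). Viability taken as cellular ATP by CellTiter-Glo luminescence 72 h after compound addition.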

SMILES | EC50 [1] | EC50 [2] | EC50 [3] | EC50 [4]
N#Cc1cccc(-c2cn(CCCN)c3ccc(CN4CCN(Cc5c(Cl)cccc5Cl)CC4)cc23)c1 [C13; HCl] | ≤ 5 µM | ≤ 5 µM | ≤ 5 µM | 
NCCCn1cc(-c2ccc(OC(F)(F)F)cc2)c2cc(CN3CCN(S(=O)(=O)c4ccccc4Cl)CC3)ccc21 [C14; HCl] | ≤ 5 µM | ≤ 5 µM | ≤ 5 µM | 
CCC1CCN(Cc2ccc3c(c2)c(-c2ccc(OC)cc2CN)cn3CCCN)CC1 [C255; HCl] | ≤ 5 µM | 5 to 10 µM |  | 5 to 10 µM
CCC1CCN(Cc2ccc3c(c2)c(-c2ccc(C)cc2CN)cn3CCCN)CC1 [C256; HCl] | 5 to 10 µM | 5 to 10 µM |  | 5 to 10 µM
CC1CCN(Cc2ccc3c(c2)c(-c2ccc(OC(F)(F)F)cc2CN)cn3CCCN)CC1 [C257; HCl] | ≤ 5 µM | ≤ 5 µM |  | ≤ 5 µM
NCCCn1cc(-c2ccc(OC(F)(F)F)cc2CN)c2cc(CN3CCNC(=O)C3)ccc21 [C258; Formic Acid] | 5 to 10 µM | 5 to 10 µM |  | 5 to 10 µM
NCCCn1cc(-c2ccc(OC(F)(F)F)cc2CN)c2cc(CN3CCCC(N)C3)ccc21 (stereo not drawn) [C259; HCl] | 5 to 10 µM | 5 to 10 µM |  | 5 to 10 µM
NCCCn1cc(-c2ccc(OC(F)(F)F)cc2CN)c2cc(CN3CCCCC3)ccc21 [C260; HCl] | ≤ 5 µM | 5 to 10 µM |  | 5 to 10 µM
CCC1CCN(Cc2ccc3c(c2)c(-c2ccc(OC(F)(F)F)cc2CN)cn3CCCN)CC1 [C261; HCl] | ≤ 5 µM | ≤ 5 µM |  | ≤ 5 µM
COc1cccc(CC2CCN(Cc3ccc4c(c3)c(-c3ccc(OC(F)(F)F)cc3CN)cn4CCCN)CC2)c1 [C262; HCl] | ≤ 5 µM | ≤ 5 µM |  | ≤ 5 µM
NCCCn1cc(-c2ccc(OC(F)(F)F)cc2CN)c2cc(S(=O)(=O)N3CCC(Nc4cccc(Cl)c4)CC3)ccc21 [C263; Formic Acid] | ≤ 5 µM | ≤ 5 µM |  | 5 to 10 µM
NCc1cc(OC(F)(F)F)ccc1-c1cn(CCCNC(=O)C2(N)CCNCC2)c2ccc(CN3CCN(Cc4ccccc4Cl)CC3)cc12 [C264; HCl] | 5 to 10 µM | 5 to 10 µM |  | 5 to 10 µM
NCCCn1cc(-c2ccc(OC(F)(F)F)cc2CN)c2cc(CN3CCOCC3)ccc21 [C265; HCl] | ≤ 5 µM | ≤ 5 µM |  | ≤ 5 µM
COc1ccc(CN2CCN(Cc3ccc4c(c3)c(-c3ccc(OC(F)(F)F)cc3CN)cn4CCCN)CC2)cc1 [C266; HCl] | ≤ 5 µM | ≤ 5 µM |  | ≤ 5 µM
NCCCn1cc(-c2ccc(OC(F)(F)F)cc2CN)c2cc(CN3CCN(Cc4cccc(OC(F)(F)F)c4)CC3)ccc21 [C267; HCl] | ≤ 5 µM | ≤ 5 µM |  | ≤ 5 µM
COc1ccccc1CN1CCN(Cc2ccc3c(c2)c2ccccc2n3CCCN)CC1 [C268; HCl] | 5 to 10 µM | 5 to 10 µM |  | ≤ 5 µM
Cc1ccc(-c2cn(CCCN)c3ccc(CC4CCN(Cc5ccccc5Cl)CC4)cc23)c(CN)c1 [C269; Formic Acid] | ≤ 5 µM | ≤ 5 µM |  | ≤ 5 µM
CCC1CCN(S(=O)(=O)c2ccc3c(c2)c(-c2ccc(OC)cc2CN)cn3CCCN)CC1 [C270; HCl] | ≤ 5 µM | ≤ 5 µM |  | ≤ 5 µM
CC(=O)NCc1cc(OC(F)(F)F)ccc1-c1cn(CCCN)c2ccc(CN3CCN(Cc4ccccc4Cl)CC3)cc12 [C271; HCl] | ≤ 5 µM | ≤ 5 µM |  | ≤ 5 µM
CC1(C)CCN(Cc2ccc3c(c2)c(-c2ccc(OC(F)(F)F)cc2CN)cn3CCCN)CC1 [C272; HCl] | 5 to 10 µM | ≤ 5 µM |  | ≤ 5 µM
COc1cccc(CN2CCN(Cc3ccc4c(c3)c(-c3ccc(OC(F)(F)F)cc3CN)cn4C3CCNCC3)CC2)c1 [C274; HCl] | ≤ 5 µM | ≤ 5 µM |  | ≤ 5 µM
COc1cc(CN2CCN(Cc3ccc4c(c3)c(-c3ccc(OC(F)(F)F)cc3CN)cn4C3CCNCC3)CC2)cc(OC)c1 [C275; HCl] | ≤ 5 µM | ≤ 5 µM |  | ≤ 5 µM

SMILES | EC50 [1] | EC50 [2] | EC50 [3] | EC50 [4]
NCCCn1cc(-c2ccc(OC(F)(F)F)cc2CN)c2cc(CN3CCCC(NCC(F)(F)F)C3)ccc21 (stereo not drawn) [C276; HCl] | 5 to 10 µM | ≤ 5 µM |  | 5 to 10 µM
COc1cccc(NC2CCN(Cc3ccc4c(c3)c(-c3ccc(OC(F)(F)F)cc3CN)cn4CCCN)CC2)c1 [C277; HCl] | ≤ 5 µM | ≤ 5 µM |  | ≤ 5 µM
COc1cc(NC2CCN(Cc3ccc4c(c3)c(-c3ccc(OC(F)(F)F)cc3CN)cn4CCCN)CC2)cc(OC)c1 [C278; HCl] | ≤ 5 µM | ≤ 5 µM |  | ≤ 5 µM
COc1cccc(CC2CN(Cc3ccc4c(c3)c(-c3ccc(OC(F)(F)F)cc3CN)cn4CCCN)C2)c1 [C279; Formic Acid] | ≤ 5 µM | ≤ 5 µM |  | ≤ 5 µM
COc1cccc(OC2CCN(Cc3ccc4c(c3)c(-c3ccc(OC(F)(F)F)cc3CN)cn4CCCN)CC2)c1 [C280; HCl] | ≤ 5 µM | ≤ 5 µM |  | ≤ 5 µM
COc1cc(OC)cc(OC2CCN(Cc3ccc4c(c3)c(-c3ccc(OC(F)(F)F)cc3CN)cn4CCCN)CC2)c1 [C281; HCl] | ≤ 5 µM | ≤ 5 µM |  | ≤ 5 µM
NCCCn1cc(-c2ccc(OC(F)(F)F)cc2CN)c2cc(CN3CCSCC3)ccc21 [C282; HCl] | ≤ 5 µM | ≤ 5 µM |  | ≤ 5 µM
COc1cccc(C(C)(C)N2CCN(Cc3ccc4c(c3)c(-c3ccc(OC(F)(F)F)cc3CN)cn4CCCN)CC2)c1 [C283; HCl] | ≤ 5 µM | ≤ 5 µM |  | ≤ 5 µM
COc1ccc(-c2cn(CCCN)c3ccc(CN4CCN(Cc5ccccc5Cl)CC4)cc23)c(CN(C)C)c1 [C284; HCl] | ≤ 5 µM | ≤ 5 µM |  | ≤ 5 µM
COc1cc(OC)cc(C(C)(C)N2CCN(Cc3ccc4c(c3)c(-c3ccc(OC(F)(F)F)cc3CN)cn4CCCN)CC2)c1 [C285; HCl] | ≤ 5 µM | ≤ 5 µM |  | ≤ 5 µM
COc1ccc(-c2cn(CCCN)c3ccc(CN4CCN(Cc5ccccc5Cl)CC4)cc23)c(CNS(C)(=O)=O)c1 [C287; HCl] | ≤ 5 µM | ≤ 5 µM |  | ≤ 5 µM
NCCCn1cc(-c2ccc(OC(F)(F)F)cc2CN)c2cc(CN3CCS(=O)(=O)CC3)ccc21 [C288; HCl] | ≤ 5 µM | ≤ 5 µM |  | ≤ 5 µM
NCCCn1cc(-c2c(F)cccc2C(N)=O)c2cc(CN3CCN(Cc4ccccc4Cl)CC3)ccc21 [C289; HCl] | 5 to 10 µM | 5 to 10 µM |  | 5 to 10 µM
NCCCn1cc(-c2ccc(OC(F)(F)F)cc2CN)c2cc(CN3CCC(O)CC3)ccc21 [C290; HCl] | 5 to 10 µM | 5 to 10 µM |  | 5 to 10 µM
COc1cccc(CN2CCC(Cc3ccc4c(c3)c(-c3ccc(OC(F)(F)F)cc3CN)cn4CCCN)CC2)c1 [C291; HCl] | ≤ 5 µM | ≤ 5 µM |  | ≤ 5 µM
NCCCn1cc(-c2ccc(OC(F)(F)F)cc2)c2cc(CN3CCS(=O)(=O)CC3)ccc21 [C292; Formic Acid] | ≤ 5 µM | ≤ 5 µM |  | 5 to 10 µM
NCCCn1cc(-c2ccc(OC(F)(F)F)cc2)c2cc(CN3CCSCC3)ccc21 [C293; HCl] | ≤ 5 µM | ≤ 5 µM |  | ≤ 5 µM
COc1cccc(CC2(CO)CCN(Cc3ccc4c(c3)c(-c3ccc(OC(F)(F)F)cc3CN)cn4CCCN)CC2)c1 [C294; HCl] | ≤ 5 µM | ≤ 5 µM |  | ≤ 5 µM
NCCCn1cc(-c2ccc(OC(F)(F)F)cc2)c2cc(CN3CCC(O)CC3)ccc21 [C295; HCl] | ≤ 5 µM | ≤ 5 µM |  | ≤ 5 µM
COc1cccc(CN(C)CCN(C)Cc2ccc3c(c2)c(-c2ccc(OC(F)(F)F)cc2CN)cn3CCCN)c1 [C296; HCl] | ≤ 5 µM | ≤ 5 µM |  | ≤ 5 µM
COc1cc(CN(C)CCN(C)Cc2ccc3c(c2)c(-c2ccc(OC(F)(F)F)cc2CN)cn3CCCN)cc(OC)c1 [C297; HCl] | ≤ 5 µM | ≤ 5 µM |  | ≤ 5 µM
COc1cccc(CCCCN(C)Cc2ccc3c(c2)c(-c2ccc(OC(F)(F)F)cc2CN)cn3CCCN)c1 [C298; HCl] | 5 to 10 µM | ≤ 5 µM |  | ≤ 5 µM
